Assays:
[1] = test system: human large intestine cancer cell line HCT-116; experiment: In vitro cell growth inhibitory activity against human large intestine cancer line by combined use with chemotherapeutic; format: cell-based; conditions: HCT-116, 3 days, single-agent treatment
Procedure: A human large intestine cancer cell line HCT-116 (obtained from DS Pharma Biomedical Co., Ltd.) was cultured in a McCoy's 5A medium (manufactured by Thermo Fisher Scientific, Inc.) containing 10% fetal bovine serum (FBS) (manufactured by Thermo Fisher Scientific, Inc.) and 1% penicillin/streptomycin/amphotericin B (manufactured by Thermo Fisher Scientific, Inc.) and inoculated at 0.5 to 2.0×10^3 cells/well to a 96-well plate. The cells were cultured overnight in a carbon dioxide incubator of 37° C. containing 5% carbon dioxide. The medium was replaced with a fresh medium on the next day, and then, a mixed solution of a DMSO solution of a test compound (IV-361, 5-FU or SN-38) with varying concentrations and a cell culture medium (final DMSO concentration: 0.2%) was added thereto. The concentration of the test compound was 10 nM, the concentration of 5-FU (manufactured by Wako Pure Chemical Industries, Ltd.) was 1000 nM, and the concentration of SN-38 (manufactured by Tocris Bioscience) was adjusted to 1 nM to carry out the test. For a control group, a mixed solution of DMSO and a cell culture medium (final DMSO concentration: 0.2%) was used instead of the DMSO solution of the test compound.
After the addition of the DMSO solution of the test compound, the cells were cultured for 3 days in a carbon dioxide incubator. Then, the absorbance (measurement wavelength: 565 nm) of the medium in each group was measured by using In Vitro Toxicology Assay Kit Sulforhodamine B based (manufactured by Sigma-Aldrich Co. LLC.).
The rate of inhibition of growth (%) was calculated according to the expression given below. Specifically, in the case where the difference between the average absorbance before culture (day 0) and the average absorbance after culture in the test compound-administered group is the same as the difference between the average absorbance before culture (day 0) and the average absorbance after culture in the control group, the rate of inhibition of cell growth is 0%. Rate of inhibition of growth=(1−((Average absorbance of the test compound-administered group after culture)−(Average absorbance of the test compound-administered group on day 0))/((Average absorbance of the control group after culture)−(Average absorbance of the control group on day 0)))×100

[2] = test system: human large intestine cancer cell line (HCT-116) tumor; experiment: In vivo tumor growth inhibition test for human large intestine cancer cell line by combined use with chemotherapeutic; conditions: alone
Procedure: The prepared cell suspension was subcutaneously injected at 0.1 mL/mouse to the right abdomens of female BALB nude mice (supplied by Charles River Laboratories Japan, Inc.).
Individuals whose tumor volume was within the range of 50 to 200 mm^3 were selected and grouped such that the tumor volume was almost equivalent. After the grouping, a test compound or only a solvent was administered in a repeated manner to the mice of each group as follows:
Single-agent administration group:
Control group: solvent (administered once a day)
5-FU, oxaliplatin, and irinotecan were intraperitoneally administered (5 mL/kg).
After a lapse of a predetermined period, the body weights of the mice of each group and the long diameter and short diameter of tumor were measured, and the tumor volume of the test compound-administered group with respect to the tumor volume of the control group was calculated as the rate of suppression of tumor volume (%).

[3] = test system: human large intestine cancer cell line (HCT-116); experiment: Human large intestine cancer (HCT-116) cell growth inhibition test; format: cell-based; conditions: HCT-116 (row of Table 50), read-out: GI50 value (concentration necessary for inhibiting 50% of cell growth)
Summary of the method: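 HCT-116 cells were seeded at 0.5 to 2.0×10^3 cells/well in McCoy's 5A with 10% FBS and dosed with compound at 0.1% final DMSO after overnight culture. Growth was measured by sulforhodamine B absorbance after 3 days. GI50 was calculated from the inhibition rate at each concentration.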

[4] = test system: breast cancer cell line BT-549; experiment: Various human cancer cell growth inhibition test: BT-549; format: cell-based; conditions: ATPlite, read-out: GI50 value (concentration necessary for inhibiting 50% of cell growth)
Text: (§1) A breast cancer cell line BT-549 (obtained from American Type Culture Collection (ATCC)), a uterus cancer cell line C-33A (obtained from ATCC), an ovary cancer cell line PA-1 (obtained from ATCC), a large-cell lung cancer cell line NCI-H460 (obtained from ATCC), a small-cell lung cancer cell line NCI-H82 (obtained from ATCC), a kidney cancer cell line ACHN (obtained from ATCC), a pancreatic cancer cell line BxPC-3 (obtained from ATCC), a malignant melanoma cell line A375 (obtained from ATCC), a throat cancer cell line FaDu (obtained from ATCC), a medulloblastoma cell line Daoy (obtained from ATCC), a cutaneous epithelioid sarcoma cell line VA-ES-BJ (obtained from ATCC), a rhabdomyosarcoma cell line A-204 (obtained from ATCC), a prostate cancer cell line DU145 (obtained from ATCC), a bladder cancer cell line T24 (obtained from ATCC), a lymphoma cell line SR (obtained from ATCC), a neuroblastoma cell line SH-SY5Y (obtained from DS Pharma Biomedical Co., Ltd.), a liver cancer cell line HepG2 (obtained from DS Pharma Biomedical Co., Ltd.), a stomach cancer cell line HGC-27 (obtained from DS Pharma Biomedical Co., Ltd.), and a multiple myeloma cell line NCI-H929 (obtained from DS Pharma Biomedical Co., Ltd.) were used as human cancer cell lines.
(§2) Each cell line was cultured in a cell culture medium recommended by ATCC or DS Pharma Biomedical Co., Ltd. and inoculated at 0.3 to 5.0×10^3 cells/well to a 96-well plate. The cells were cultured overnight in a carbon dioxide incubator of 37° C. containing 5% carbon dioxide. The medium was replaced with a fresh medium on the next day, then replaced with a mixed solution of a DMSO solution of a test compound with varying concentrations and a culture medium (final DMSO concentration: 0.1%), and left standing in a carbon dioxide incubator (day 0). IV-361, IV-379, IV-3, IV-215, IV-299, IV-669, IV-1049, and palbociclib (for comparison) were used as test compounds. For a control group, DMSO was added instead of the DMSO solution of the test compound to a cell culture medium (final DMSO concentration: 0.1%).
(§3) After culture for a predetermined period, the ATP activity of BT-549, C-33A, PA-1, NCI-H460, NCI-H82, ACHN, BxPC-3, A375, FaDu, Daoy, VA-ES-BJ, A-204, DU145, T24, and SR was measured by using ATPlite (manufactured by PerkinElmer, Inc.). The ATP activity of SH-SY5Y, HepG2, HGC-27, and NCI-H929 was measured by using CellTiter-Glo (manufactured by Promega Corp.).
(§4) The rate of inhibition of cell growth (%) was calculated according to the expression given below. Specifically, in the case where the difference between the ATP activity before culture (day 0) and the ATP activity after culture in the test compound-administered group is the same as the difference between the ATP activity before culture (day 0) and the ATP activity after culture in the control group, the rate of inhibition of cell growth is 0%. Rate of inhibition of cell growth=(1−((ATP activity of the test compound-administered group after culture)−(ATP activity of the test compound-administered group on day 0))/((ATP activity of the control group after culture)−(ATP activity of the control group on day 0)))×100
(§5) The concentration of the test compound necessary for inhibiting 50% of cell growth (GI50 value) was calculated by using EXSUS (version 8.1.0, manufactured by CAC Exicare Corp.).

[5] = test system: uterus cancer cell line C-33A; experiment: Various human cancer cell growth inhibition test: C-33A; format: cell-based; conditions: ATPlite, read-out: GI50 value (concentration necessary for inhibiting 50% of cell growth)
Text: as §1, §2, §3, §4, §5

[6] = test system: ovary cancer cell line PA-1; experiment: Various human cancer cell growth inhibition test: PA-1; format: cell-based; conditions: ATPlite, read-out: GI50 value (concentration necessary for inhibiting 50% of cell growth)
Text: as §1, §2, §3, §4, §5

[7] = test system: large-cell lung cancer cell line NCI-H460; experiment: Various human cancer cell growth inhibition test: NCI-H460; format: cell-based; conditions: ATPlite, read-out: GI50 value (concentration necessary for inhibiting 50% of cell growth)
Text: as §1, §2, §3, §4, §5

[8] = test system: small-cell lung cancer cell line NCI-H82; experiment: Various human cancer cell growth inhibition test: NCI-H82; format: cell-based; conditions: ATPlite, read-out: GI50 value (concentration necessary for inhibiting 50% of cell growth)
Text: as §1, §2, §3, §4, §5

[9] = test system: kidney cancer cell line ACHN; experiment: Various human cancer cell growth inhibition test: ACHN; format: cell-based; conditions: ATPlite, read-out: GI50 value (concentration necessary for inhibiting 50% of cell growth)
Text: as §1, §2, §3, §4, §5

[10] = test system: pancreatic cancer cell line BxPC-3; experiment: Various human cancer cell growth inhibition test: BxPC-3; format: cell-based; conditions: ATPlite, read-out: GI50 value (concentration necessary for inhibiting 50% of cell growth)
Text: as §1, §2, §3, §4, §5

[11] = test system: malignant melanoma cell line A375; experiment: Various human cancer cell growth inhibition test: A375; format: cell-based; conditions: A-375, ATPlite, read-out: GI50 value (concentration necessary for inhibiting 50% of cell growth)
Text: as §1, §2, §3, §4, §5

[12] = test system: throat cancer cell line FaDu; experiment: Various human cancer cell growth inhibition test: FaDu; format: cell-based; conditions: ATPlite, read-out: GI50 value (concentration necessary for inhibiting 50% of cell growth)
Text: as §1, §2, §3, §4, §5

[13] = test system: rhabdomyosarcoma cell line A-204; experiment: Various human cancer cell growth inhibition test: A-204; format: cell-based; conditions: A204, ATPlite, read-out: GI50 value (concentration necessary for inhibiting 50% of cell growth)
Text: as §1, §2, §3, §4, §5

lymphoma cell line SR = experiment: Various human cancer cell growth inhibition test: SR; format: cell-based; conditions: ATPlite, read-out: GI50 value (concentration necessary for inhibiting 50% of cell growth)
Text: as §1, §2, §3, §4, §5

O=c1[nH]cc(F)c(=O)[nH]1 [5-FU, 5-Fluorouracil, reference compound]
inhibition at 1 µM ([1]; Homo sapiens, 72 h, 5-FU 1000 nM, read-out: Rate of inhibition of growth (%)): 25% | Rate of suppression of tumor volume ([2]; Table 52, 5-FU 15 mg/kg/day intraperitoneal): 21%

O=C1[O][Pt]2([NH][C@@H]3CCCC[C@H]3[NH]2)[O]C1=O [Oxaliplatin, oxaliplatin, reference compound]
Rate of suppression of tumor volume ([2]; Table 53, oxaliplatin 3 mg/kg/day intraperitoneal): 44%

CC(=O)c1c(C)c2cnc(Nc3ccc(N4CCNCC4)cn3)nc2n(C2CCCC2)c1=O [Palbociclib, palbociclib, reference compound]
GI50 [3]: 0.3 to 1 µM | GI50 [4]: ≥ 1 µM | GI50 [5]: ≥ 1 µM | GI50 [6]: < 0.3 µM | GI50 [7]: < 0.3 µM | GI50 [8]: ≥ 1 µM | GI50 [9]: < 0.3 µM | GI50 [10]: < 0.3 µM | GI50 [11]: < 0.3 µM | GI50 [12]: ≥ 1 µM | GI50 [13]: ≥ 1 µM | GI50 (lymphoma cell line SR): < 0.3 µM

CCc1c2c(nc3ccc(O)cc13)-c1cc3c(c(=O)n1C2)COC(=O)[C@]3(O)CC [SN-38, reference compound]
Rate of inhibition of growth (%) ([1]; SN-38 1 nM): 12%

From patent publication US10894798B2, “Substituted dihydropyrrolopyrazole derivative” (UBE INDUSTRIES, LTD., priority 2015, dated 2021)
